Laboratory results: patent US9936701B2, “Herbicidal compounds” (Syngenta Participations AG, priority 2013, dated 2018)

Tests used:
[1] = tested on: a variety of test species; assay: Pre-emergence herbicidal activity (glasshouse, sprayed one day after sowing, evaluated after 13 days); assay type: in vivo; parameters: key: 5=total damage to plant; 0=no damage to plant; conditions: application pre-emergence, rate 1000 g/Ha, scale 0-5
Procedure, shortened: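 Compounds are applied pre-emergence as an aqueous spray, formulated in 50:50 acetone/water containing 0.5% Tween 20, to pots sown one day earlier. Plants grow in a controlled glasshouse and are scored 13 days later for damage from 0 to 5.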

[2] = tested on: a variety of test species; assay: Post-emergence herbicidal activity (glasshouse, sprayed after 8 days cultivation, evaluated after 13 days); assay type: in vivo; parameters: key: 5=total damage to plant; 0=no damage to plant; conditions: rate 1000 g/Ha, scale 0-5
Procedure, shortened: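 Seeds were sown in standard soil and cultivated for 8 days under controlled glasshouse conditions. Seedlings were then sprayed with an aqueous solution of the formulated compound containing 0.5% Tween 20. Injury was rated after a further 13 days, where 5 indicated total damage.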

SMILES	Pre-emergence herbicidal damage score, ABUTH [1]	Pre-emergence herbicidal damage score, ALOMY [1]	Pre-emergence herbicidal damage score, AMARE [1]	Pre-emergence herbicidal damage score, ECHCG [1]	Pre-emergence herbicidal damage score, SETFA [1]	Pre-emergence herbicidal damage score, ZEAMX [1]	ABUTH (Abutilon theophrasti) damage score, application post-emergence [2]	ALOMY (Alopecurus myosuroides) damage score, application post-emergence [2]	AMARE (Amaranthus retroflexus) damage score, application post-emergence [2]	ECHCG (Echinochloa crus-galli) damage score, application post-emergence [2]	SETFA (Setaria faberi) damage score, application post-emergence [2]	ZEAMX (Zea mays) damage score, application post-emergence [2]	melting point [°C]
COC1=C(Cl)C(O)N(c2cc(C(C)(C)C)on2)C1=O (stereo not drawn) [E1, 1-(5-tert-butylisoxazol-3-yl)-3-chloro-2-hydroxy-4-methoxy-2H-pyrol-5-one]	4	2	5	3	3	2	5	3	5	5	5	0	123 to 133
COC1=C(C)CN(c2noc(C(C)(C)C)c2C#N)C1=O [D11, 5-tert-butyl-3-(4-methoxy-3-methyl-5-oxo-2H-pyrrol-1-yl)isoxazole-4-carbonitrile]	4	4	5	5	5	3	5	5	5	5	5	4	138 to 140
CC1=C(Cl)C(=O)N(c2cc(C(C)C)on2)C1O (stereo not drawn) [A11]	5	4	5	5	5	2	5	5	5	5	5	5	126 to 128
COC1=C(C)C(OC(C)=O)N(c2cc(C(C)(C)C)on2)C1=O (stereo not drawn) [D7]	5	3	5	4	5	2	5	4	5	5	5	3	118 to 124
CCC(C)(C)c1cc(N2C(=O)C(Cl)=C(C)C2O)no1 (stereo not drawn) [A29]	5	3	5	5	4	1	5	4	5	5	4	3	103 to 105
CCCCC(C)(C)c1cc(N2C(=O)C(Cl)=C(C)C2O)no1 (stereo not drawn) [A38]	1	3	5	5	2	1	5	5	5	5	5	2	75 to 77
